Assay results as given in patent publication US12516058B2, “Small-molecule compounds for controlling endosomal toll-like receptors and therapeutic agent for autoimmune diseases using same” (priority 2020, dated 2026).
“Also recorded” adds a separate entry of the source.

Assays:
[1] = target: T1, TLR7 (Mus musculus, UniProt P58681); assay: TNF-α secretion ELISA after TLR7 agonist imiquimod (IMQ) in RAW 264.7 cells; type: cell-based; conditions: SK21 to SK82 at 0.5 μM or 2 μM, Imiquimod 1 μg/ml
T1 construct: endogenous in cells; host or cells: RAW 264.7
T1 sequence (P58681 27-1050): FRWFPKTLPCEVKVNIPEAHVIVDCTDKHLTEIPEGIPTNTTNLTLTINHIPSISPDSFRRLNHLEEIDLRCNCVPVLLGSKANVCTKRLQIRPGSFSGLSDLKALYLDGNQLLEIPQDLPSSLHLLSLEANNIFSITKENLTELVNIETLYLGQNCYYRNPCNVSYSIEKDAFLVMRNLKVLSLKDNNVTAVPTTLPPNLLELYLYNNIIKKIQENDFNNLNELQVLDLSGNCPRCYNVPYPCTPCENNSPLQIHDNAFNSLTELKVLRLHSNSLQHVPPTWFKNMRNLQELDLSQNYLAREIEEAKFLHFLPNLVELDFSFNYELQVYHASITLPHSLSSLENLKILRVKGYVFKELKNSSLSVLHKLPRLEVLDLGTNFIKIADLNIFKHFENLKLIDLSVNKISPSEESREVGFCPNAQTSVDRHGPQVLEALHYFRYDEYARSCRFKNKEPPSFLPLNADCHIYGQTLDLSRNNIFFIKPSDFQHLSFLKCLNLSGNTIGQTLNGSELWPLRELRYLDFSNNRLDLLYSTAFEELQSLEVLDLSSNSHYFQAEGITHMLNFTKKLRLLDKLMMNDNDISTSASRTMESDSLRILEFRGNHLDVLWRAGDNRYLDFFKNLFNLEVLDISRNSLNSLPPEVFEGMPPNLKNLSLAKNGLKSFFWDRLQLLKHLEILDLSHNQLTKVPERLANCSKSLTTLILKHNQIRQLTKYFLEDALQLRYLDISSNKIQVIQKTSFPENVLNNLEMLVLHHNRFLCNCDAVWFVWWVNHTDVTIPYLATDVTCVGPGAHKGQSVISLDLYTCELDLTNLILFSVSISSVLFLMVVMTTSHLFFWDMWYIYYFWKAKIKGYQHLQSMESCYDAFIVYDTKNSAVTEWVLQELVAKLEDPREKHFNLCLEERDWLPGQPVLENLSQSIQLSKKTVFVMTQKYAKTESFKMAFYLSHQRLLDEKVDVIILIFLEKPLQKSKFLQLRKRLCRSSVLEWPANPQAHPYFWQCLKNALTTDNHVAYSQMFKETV
Protocol: (§1) In order to determine the inhibitory activities of the test-ligand, RAW 264.7 cells were pretreated with each candidate compound for 1 hour, then treated with Pam3CSK4 (synthetic triacyl lipopeptide; TLR1/2, Invitrogen), FSL-1 (synthetic diacyl lipoprotein, TLR2/6, 100 ng/ml), lipopolysaccharide (LPS, TLR4, Sigma Aldrich), imiquimod (IMQ, TLR7, Invitrogen), and ODN2395 (type C CpG repeat motif DNA oligo(5′-[…]-3), TLR9, Bioneer) ligand for 4 hours, and treated with poly I:C (I:C repeat motif double-stranded RNA, TLR3, Invitrogen) and TL8-506 (TLR8, Invitrogen) showing delayed reactivity for 24 hours. After activation of TLR, the supernatant was diluted in an appropriate ratio so as to measure within the standard dose range, transferred to a pre-coated 96-well assay plate, and then treated with mouse TNF-alpha secretion level in accordance with the manufacturer's instructions using a mouse-TNF-alpha ELISA-kit (Invitrogen).
(§2) In order to plot the concentration-dependent LC50 curves, treatment with the SK series ligands at different concentrations up to 200 μM (the highest concentration that could be treated within the level of 0.5% DMSO) was performed. Then, cell viability and toxicity response upon treatment with ligands were analyzed by MTT as described in Examples 1-3. Cell viability in each plot was normalized from negative control (100%; no treatment) to positive control (highest concentration of test-ligand), and LC50 was determined by non-linear regression (Graph Pad Prism 7.0). In order to plot the concentration-dependent IC50 curves, pre-treatment with the SK series ligands was performed at different concentrations up to 50 μM (twice the initial concentration). Cell responses mediated by TLR7 and TLR9 (levels of TNF-α secretion) were analyzed by ELISA as described in Examples 1-4. The cytokine level in each plot was normalized from negative control (non-treated) to positive control (treatment with ligand), and IC50 was determined by non-linear regression (Graph Pad Prism 7.0).
(§3) In order to select potential inhibitory molecules against TLR3/TLR7/TLR8/TLR9 activation, first, MTT (3-(4,5-dimethylthiazol-2-yl)-2,5-diphenyltetrazolium bromide) cell viability assay (FIG. 7) was performed upon treatment with a set of ligands from SK21 to SK82 at a concentration of 20 μM and the inhibitory activity thereof was evaluated by an ELISA assay to monitor the level of TNF-α secretion in RAW 264.7 cells. The experimental ligands from SK21 to SK82 were administered at 0.5 μM or 2 μM to the RAW 264.7 cells and stimulated with Imiquimod (TLR7, 1 μg/ml) and OND2395 (TLR9, 0.5 μM).

[2] = target: T2, TLR9 (Mus musculus, UniProt Q9EQU3); assay: TNF-α secretion ELISA after TLR9 agonist ODN2395 in RAW 264.7 cells; type: cell-based; conditions: SK21 to SK82 at 0.5 μM or 2 μM, ODN2395 0.5 μM
T2 construct: endogenous in cells; host or cells: RAW 264.7
T2 sequence (Q9EQU3 26-1032): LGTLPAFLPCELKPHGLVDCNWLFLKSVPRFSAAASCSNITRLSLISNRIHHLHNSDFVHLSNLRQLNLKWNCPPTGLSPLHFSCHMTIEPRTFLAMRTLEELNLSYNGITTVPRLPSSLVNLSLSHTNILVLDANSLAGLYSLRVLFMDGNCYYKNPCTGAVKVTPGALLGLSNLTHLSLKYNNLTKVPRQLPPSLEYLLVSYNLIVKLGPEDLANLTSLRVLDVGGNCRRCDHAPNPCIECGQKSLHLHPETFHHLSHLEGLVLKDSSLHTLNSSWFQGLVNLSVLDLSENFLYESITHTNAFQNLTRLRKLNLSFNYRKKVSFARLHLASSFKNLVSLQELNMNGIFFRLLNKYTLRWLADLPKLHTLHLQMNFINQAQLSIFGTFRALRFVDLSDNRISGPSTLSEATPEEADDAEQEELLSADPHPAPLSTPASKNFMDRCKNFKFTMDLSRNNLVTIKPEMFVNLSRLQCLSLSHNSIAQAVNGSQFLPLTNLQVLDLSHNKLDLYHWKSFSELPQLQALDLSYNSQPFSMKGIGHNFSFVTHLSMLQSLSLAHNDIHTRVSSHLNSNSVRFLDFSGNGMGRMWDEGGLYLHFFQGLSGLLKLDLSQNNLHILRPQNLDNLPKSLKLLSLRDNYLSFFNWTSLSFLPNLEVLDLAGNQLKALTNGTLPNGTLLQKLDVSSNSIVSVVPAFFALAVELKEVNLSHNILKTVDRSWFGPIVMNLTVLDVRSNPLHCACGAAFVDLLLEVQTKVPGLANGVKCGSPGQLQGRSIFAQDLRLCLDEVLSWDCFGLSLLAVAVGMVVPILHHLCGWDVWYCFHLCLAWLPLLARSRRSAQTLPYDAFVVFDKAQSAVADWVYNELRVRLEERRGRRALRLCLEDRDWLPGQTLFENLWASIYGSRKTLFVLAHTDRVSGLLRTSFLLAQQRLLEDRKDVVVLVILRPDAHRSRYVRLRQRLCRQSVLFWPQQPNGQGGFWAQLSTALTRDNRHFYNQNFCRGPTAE
Protocol: as §1, §2, §3

SMILES | inhibitory activity against TLR7 (level of TNF-α secretion) [1] | inhibitory activity against TLR9 (level of TNF-α secretion) [2]
Cc1c(C)n(CCCN(C)Cc2ccccc2)c2nc3c(c(N)c12)CCCCC3 [SK23, 1-(3-(benzyl(methyl)amino)propyl)-2,3-dimethyl-1,5,6,7,8,9-hexahydrocyclohepta[b]pyrrolo[3,2-e]pyridin-4-amine] | significant inhibitory activity; also recorded: significantly reduced | significant inhibitory activity; also recorded: significantly reduced
CNCCCn1c(C)c(C)c2c(N)c3c(nc21)CCCCC3 [SK24, 2,3-dimethyl-1-(3-(methylamino)propyl)-1,5,6,7,8,9-hexahydrocyclohepta[b]pyrrolo[3,2-e]pyridin-4-amine] | significant inhibitory activity; also recorded: significantly reduced | significant inhibitory activity; also recorded: significantly reduced
Cc1cc2c(N)c3c(nc2n1CCCN(C)C)CCCCC3 [SK29, 1-(3-(dimethylamino)propyl)-2-methyl-1,5,6,7,8,9-hexahydrocyclohepta[b]pyrrolo[3,2-e]pyridin-4-amine] | significant inhibitory activity; also recorded: significantly reduced | significant inhibitory activity; also recorded: significantly reduced
Cc1c(C)n(CCCN(C)C)c2nc3c(c(N)c12)CCCC3 [SK36, 1-(3-(dimethylamino)propyl)-2,3-dimethyl-5,6,7,8-tetrahydro-1H-pyrrolo[2,3-b]quinolin-4-amine] | significant inhibitory activity; also recorded: significantly reduced | significant inhibitory activity; also recorded: significantly reduced
Cc1cc2c(N)c3c(nc2n1CCCN(C)C)CCCC3 [SK39, 1-(3-(dimethylamino)propyl)-2-methyl-5,6,7,8-tetrahydro-1H-pyrrolo[2,3-b]quinolin-4-amine] | significant inhibitory activity; also recorded: significantly reduced | significant inhibitory activity; also recorded: significantly reduced
CCc1nc2c(cc(C)n2CCCN(C)C)c(N)c1C [SK40, 1-(3-(dimethylamino)propyl)-6-ethyl-2,5-dimethyl-1H-pyrrolo[2,3-b]pyridin-4-amine] | significant inhibitory activity; also recorded: significantly reduced | significant inhibitory activity; also recorded: significantly reduced
CN(C)CCCn1c2ccccc2c2c(N)c3c(nc21)CCCC3 [SK52, 6-(3-(dimethylamino)propyl)-2,3,4,6-tetrahydro-1H-indolo[2,3-b]quinolin-11-amine] | significant inhibitory activity; also recorded: significantly reduced | significant inhibitory activity; also recorded: significantly reduced
CNCCCn1c2ccc(OC)cc2c2c(N)c3c(nc21)CCCC3 [SK54, 9-methoxy-6-(3-(methylamino)propyl)-2,3,4,6-tetrahydro-1H-indolo[2,3-b]quinolin-11-amine] | significant inhibitory activity; also recorded: significantly reduced | significant inhibitory activity; also recorded: significantly reduced
CNCCCn1c2ccccc2c2c(N)c3c(nc21)CCCC3 [SK55, 6-(3-(methylamino)propyl)-2,3,4,6-tetrahydro-1H-indolo[2,3-b]quinolin-11-amine] | significant inhibitory activity; also recorded: significantly reduced | significant inhibitory activity; also recorded: significantly reduced
CN(C)CCCn1c2ccc(F)cc2c2c(N)c3c(nc21)CCCC3 [SK59, 6-(3-(dimethylamino)propyl)-9-fluoro-2,3,4,6-tetrahydro-1H-indolo[2,3-b]quinolin-11-amine] | significant inhibitory activity; also recorded: significantly reduced | significant inhibitory activity; also recorded: significantly reduced
CN(C)CCCn1c2ccc(Cl)cc2c2c(N)c3c(nc21)CCCC3 [SK60, 9-chloro-6-(3-(dimethylamino)propyl)-2,3,4,6-tetrahydro-1H-indolo[2,3-b]quinolin-11-amine] | significant inhibitory activity; also recorded: significantly reduced | significant inhibitory activity; also recorded: significantly reduced
CN(C)CCCn1c2ccc(OC(F)(F)F)cc2c2c(N)c3c(nc21)CCCC3 [SK61, 6-(3-(dimethylamino)propyl)-9-(trifluoromethoxy)-2,3,4,6-tetrahydro-1H-indolo[2,3-b]quinolin-11-amine] | significant inhibitory activity; also recorded: significantly reduced | significant inhibitory activity; also recorded: significantly reduced
